Patent US9624206B2, “Antibacterial 1H-indazole and 1H-indole derivatives” (priority 2013, dated 2017)
Converted amounts (≈) assume the structure as drawn.

Key:
Assay in all cases: Bacterial growth minimal inhibitory concentration (microdilution, CLSI M7-A7)
Format in all cases: cell-based
K. pneumoniae A-651 = settings: Klebsiella pneumoniae, A651; multiply-resistant strain (in particular quinolone-resistant); cation-adjusted Mueller-Hinton Broth
Experimental: (§1) Minimal Inhibitory Concentrations (MICs; mg/L) were determined in cation-adjusted Mueller-Hinton Broth by a microdilution method following the description given in “Methods for Dilution Antimicrobial Susceptibility Tests for Bacteria that Grow Aerobically”, Approved standard, 7th ed., Clinical and Laboratory Standards Institute (CLSI) Document M7-A7, Wayne, Pa., USA (2006).
(§2) All Example compounds were tested against several Gram-positive and Gram-negative bacteria. […] K. pneumoniae A-651 and Acinetobacter baumannii T6474 are multiply-resistant strains (in particular quinolone-resistant), while E. coli ATCC25922 and P. aeruginosa ATCC27853 are quinolone-sensitive strains.

P. aeruginosa ATCC27853 = settings: Pseudomonas aeruginosa, ATCC27853; quinolone-sensitive strain; cation-adjusted Mueller-Hinton Broth
Experimental: as §1, §2

[1] = tested on: Acinetobacter baumannii T6474; settings: Acinetobacter baumannii, T6474; multiply-resistant strain (in particular quinolone-resistant); cation-adjusted Mueller-Hinton Broth
Experimental: as §1, §2

E. coli ATCC25922 = settings: Escherichia coli, ATCC25922; quinolone-sensitive strain; cation-adjusted Mueller-Hinton Broth
Experimental: as §1, §2

SMILES | MIC (K. pneumoniae A-651) | MIC (P. aeruginosa ATCC27853) | MIC [1] | MIC (E. coli ATCC25922)
C[C@@](CCn1ncc2cc(C#CC#CC3(CO)CC3)ccc21)(C(=O)NO)S(C)(=O)=O [Example 34, (R)—N-hydroxy-4-(5-((1-(hydroxymethyl)cyclopropyl)buta-1,3-diyn-1-yl)-1H-indazol-1-yl)-2-methyl-2-(methylsulfonyl)butanamide] | 0.5 µg/mL (≈ 1.16 µM) | 1 µg/mL (≈ 2.33 µM) | 16 µg/mL (≈ 37.3 µM) | 0.25 µg/mL (≈ 0.582 µM)
C[C@H](O)c1ccc(C#Cc2ccc3c(ccn3CC[C@](C)(C(=O)NO)S(C)(=O)=O)c2)cc1 [Example 35, (R)—N-hydroxy-4-(5-((4-((S)-1-hydroxyethyl)phenyl)ethynyl)-1H-indol-1-yl)-2-methyl-2-(methylsulfonyl)butanamide] | 0.25 µg/mL (≈ 0.55 µM) | 2 µg/mL (≈ 4.4 µM) | 0.25 µg/mL (≈ 0.55 µM) | ≤ 0.063 µg/mL
C[C@@](CCn1ncc2c(F)c(C#Cc3ccc(CCO)cc3)ccc21)(C(=O)NO)S(C)(=O)=O [Example 36, (R)-4-(4-fluoro-5-((4-(2-hydroxyethyl)phenyl)ethynyl)-1H-indazol-1-yl)-N-hydroxy-2-methyl-2-(methylsulfonyl)butanamide] | 0.125 µg/mL (≈ 0.264 µM) | 1 µg/mL (≈ 2.11 µM) | ≤ 0.063 µg/mL | ≤ 0.063 µg/mL
C[C@@H](O)c1ccc(C#Cc2ccc3c(cnn3CC[C@](C)(C(=O)NO)S(C)(=O)=O)c2F)cc1 [Example 37, (R)-4-(4-fluoro-5-((4-((R)-1-hydroxyethyl)phenyl)ethynyl)-1H-indazol-1-yl)-N-hydroxy-2-methyl-2-(methylsulfonyl)butanamide] | 0.125 µg/mL (≈ 0.264 µM) | 1 µg/mL (≈ 2.11 µM) | ≤ 0.063 µg/mL | ≤ 0.063 µg/mL
C[C@@](CCn1ncc2c(F)c(C#CC#CC3(O)COC3)ccc21)(C(=O)NO)S(C)(=O)=O [Example 38, (R)-4-(4-fluoro-5-((3-hydroxyoxetan-3-yl)buta-1,3-diyn-1-yl)-1H-indazol-1-yl)-N-hydroxy-2-methyl-2-(methylsulfonyl)butanamide] | 1 µg/mL (≈ 2.22 µM) | 1 µg/mL (≈ 2.22 µM) | 32 µg/mL (≈ 71.2 µM) | 0.5 µg/mL (≈ 1.11 µM)
C[C@@](CCn1ncc2c(F)c(C#CC#CC3(CO)CC3)ccc21)(C(=O)NO)S(C)(=O)=O [Example 39, (R)-4-(4-fluoro-5-((1-(hydroxymethyl)cyclopropyl)buta-1,3-diyn-1-yl)-1H-indazol-1-yl)-N-hydroxy-2-methyl-2-(methylsulfonyl)butanamide] | 0.5 µg/mL (≈ 1.12 µM) | 2 µg/mL (≈ 4.47 µM) | 32 µg/mL (≈ 71.5 µM) | 0.25 µg/mL (≈ 0.559 µM)
C[C@@](CCn1ncc2c(F)c(C#Cc3ccc(C4(CO)COC4)cc3)ccc21)(C(=O)NO)S(C)(=O)=O [Example 40, (R)-4-(4-fluoro-5-((4-(3-(hydroxymethyl)oxetan-3-yl)phenyl)ethynyl)-1H-indazol-1-yl)-N-hydroxy-2-methyl-2-(methylsulfonyl)butanamide] | 1 µg/mL (≈ 1.94 µM) | 4 µg/mL (≈ 7.76 µM) | 0.5 µg/mL (≈ 0.97 µM) | 0.5 µg/mL (≈ 0.97 µM)

Further lines, results first:

MIC (K. pneumoniae A-651) | MIC (P. aeruginosa ATCC27853) | MIC [1] | MIC (E. coli ATCC25922) | SMILES
0.25 µg/mL (≈ 0.582 µM) | 0.5 µg/mL (≈ 1.16 µM) | 32 µg/mL (≈ 74.5 µM) | ≤ 0.063 µg/mL | C[C@@](CCn1ncc2cc(C#CC#C[C@@H]3C[C@H]3CO)ccc21)(C(=O)NO)S(C)(=O)=O [Example 42, (R)—N-hydroxy-4-(5-(((1R,2R)-2-(hydroxymethyl)cyclopropyl)buta-1,3-diyn-1-yl)-1H-indazol-1-yl)-2-methyl-2-(methylsulfonyl)butanamide]
0.5 µg/mL (≈ 1.09 µM) | 1 µg/mL (≈ 2.18 µM) | 16 µg/mL (≈ 34.9 µM) | 0.5 µg/mL (≈ 1.09 µM) | C[C@@](CCn1ccc2cc(C#Cc3ccc(CO)cc3F)ccc21)(C(=O)NO)S(C)(=O)=O [Example 43, (R)-4-(5-((2-fluoro-4-(hydroxymethyl)phenyl)ethynyl)-1H-indol-1-yl)-N-hydroxy-2-methyl-2-(methylsulfonyl)butanamide]
0.25 µg/mL (≈ 0.531 µM) | 2 µg/mL (≈ 4.25 µM) | 8 µg/mL (≈ 17 µM) | 0.125 µg/mL (≈ 0.266 µM) | C[C@@](CCn1ccc2cc(C#Cc3ccc([C@@H](O)CO)cc3)ccc21)(C(=O)NO)S(C)(=O)=O [Example 44, (R)-4-(5-((4-((R)-1,2-dihydroxyethyl)phenyl)ethynyl)-1H-indol-1-yl)-N-hydroxy-2-methyl-2-(methylsulfonyl)butanamide]
0.25 µg/mL (≈ 0.55 µM) | 1 µg/mL (≈ 2.2 µM) | 8 µg/mL (≈ 17.6 µM) | ≤ 0.063 µg/mL | C[C@@](CCn1ccc2cc(C#Cc3ccc(CCO)cc3)ccc21)(C(=O)NO)S(C)(=O)=O [Example 45, (R)—N-hydroxy-4-(5-((4-(2-hydroxyethyl)phenyl)ethynyl)-1H-indol-1-yl)-2-methyl-2-(methylsulfonyl)butanamide]
0.125 µg/mL (≈ 0.279 µM) | 1 µg/mL (≈ 2.23 µM) | > 32 µg/mL | ≤ 0.063 µg/mL | C[C@@](CCn1ncc2cc(C#CC#C[C@H]3C[C@@H]3CO)c(F)cc21)(C(=O)NO)S(C)(=O)=O [Example 46, (R)-4-(6-fluoro-5-(((1S,2S)-2-(hydroxymethyl)cyclopropyl)buta-1,3-diyn-1-yl)-1H-indazol-1-yl)-N-hydroxy-2-methyl-2-(methylsulfonyl)butanamide]
